Results on 25 molecules are retold here after patent US11578079B2, “SUMO inhibitor compounds and uses thereof” (CITY OF HOPE, priority 2018, dated 2023).

The subject of one assay is c-Myc. The assay can be described thus: c-Myc activity (Table I, biological activities). Details: key: + (less active); ++ (active); +++ (most active).
The target in a further assay is T1, SUMO (Homo sapiens, UniProt Q9UBT2).
T1 sequence (Q9UBT2 1-640): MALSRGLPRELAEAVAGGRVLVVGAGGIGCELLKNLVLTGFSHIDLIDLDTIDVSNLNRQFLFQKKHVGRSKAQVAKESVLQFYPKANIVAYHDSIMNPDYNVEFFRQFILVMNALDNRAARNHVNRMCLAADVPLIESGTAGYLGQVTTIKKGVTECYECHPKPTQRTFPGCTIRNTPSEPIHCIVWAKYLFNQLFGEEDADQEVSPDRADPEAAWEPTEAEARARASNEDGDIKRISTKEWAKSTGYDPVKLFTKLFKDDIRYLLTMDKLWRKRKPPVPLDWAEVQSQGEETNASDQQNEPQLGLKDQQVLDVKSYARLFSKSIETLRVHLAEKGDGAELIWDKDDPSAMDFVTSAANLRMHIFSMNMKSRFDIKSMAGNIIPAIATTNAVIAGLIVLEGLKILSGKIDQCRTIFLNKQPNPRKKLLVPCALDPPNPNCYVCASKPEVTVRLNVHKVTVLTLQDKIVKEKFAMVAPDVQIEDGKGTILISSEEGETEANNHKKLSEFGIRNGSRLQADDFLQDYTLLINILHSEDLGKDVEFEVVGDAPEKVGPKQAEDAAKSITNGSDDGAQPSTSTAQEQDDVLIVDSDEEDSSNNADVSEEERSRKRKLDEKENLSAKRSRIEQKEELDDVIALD
T1 sequence (Q9UBE0 1-346 partner): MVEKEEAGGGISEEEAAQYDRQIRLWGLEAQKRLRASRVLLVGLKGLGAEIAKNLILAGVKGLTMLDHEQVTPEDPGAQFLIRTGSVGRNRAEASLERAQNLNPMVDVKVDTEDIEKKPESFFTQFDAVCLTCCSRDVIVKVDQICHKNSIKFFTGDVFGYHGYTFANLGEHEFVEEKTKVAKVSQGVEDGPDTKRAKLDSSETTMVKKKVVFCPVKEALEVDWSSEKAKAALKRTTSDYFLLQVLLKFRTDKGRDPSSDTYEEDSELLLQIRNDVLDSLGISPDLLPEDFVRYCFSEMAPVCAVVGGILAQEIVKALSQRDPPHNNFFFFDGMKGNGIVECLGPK
The assay can be described thus: SUMO activity (Table I, biological activities). Details: key: + (less active); ++ (active); +++ (most active). The assay is classed as biochemical.

As for `COC(=O)C1=C(C(=O)NCCNC(=O)Nc2ccccc2)C2C=CC1(C(Cc1ccccc1)Nc1ccccc1)O2` (centres unmarked) [Compound 395], the c-Myc entry with c-Myc is reported as “+”. Further, the SUMO entry at SUMO is recorded as “++”.
Take `COC(=O)C1=C(C(=O)NC2CCN(C)CC2)C2C=CC1(C(Cc1ccccc1)Nc1ccc(F)cc1)O2` (centres unmarked) [Compound 262]: in the assay on c-Myc, the c-Myc entry was “++”. For the same molecule, the SUMO entry on SUMO was “++”.
As for `COC(=O)C1=C(C(=O)Nc2ccc(OC)cc2)C2C=CC1(C(Nc1ccccc1)C1CCC1)O2` (centres unmarked) [Compound 178], in the assay on c-Myc, the c-Myc result was “+”. The SUMO result on SUMO is recorded as “++”.
On to `COC(=O)C1=C(C(=O)Nc2ccc(C)c(F)c2)C2C=CC1(C(Oc1ccccc1)c1ccc(CN3CCOCC3)cc1)O2` (centres unmarked) [Compound 496], for which the c-Myc entry in the assay on c-Myc is on record as “+”. Moreover, the SUMO result on SUMO is “+”.
Turning to `CCOC(=O)C1=C(C(=O)OCC)C2(C(Cc3ccccc3)Nc3ccccc3)C=CC1O2` (centres unmarked) [Compound 232], the SUMO entry on SUMO is given as “+++”.
`COC(=O)C1=C(C(=O)NC2CCN(c3ccccc3)CC2)C2C=CC1(C(Cc1ccccc1)Nc1ccccc1)O2` (centres unmarked) [Compound 290]: the SUMO result at SUMO was “+”.
Still for that read-out and setting: next, `COC(=O)C1=C(C(=O)Nc2ccc(C)c(F)c2)C2C=CC1(C(Cc1ccccc1)Nc1ccc(F)cc1)O2` (centres unmarked) [Compound 346]: “++”.
Consider `CCNC(=O)C1=C(C(=O)NCC)C2(C(Cc3ccccc3Cl)Nc3ccccc3)C=CC1O2` (centres unmarked) [Compound 662], for which the SUMO entry on SUMO is listed as “+”.
On to `COC(=O)C1=C(C(=O)OC)C2(C(Cc3ccc(CC4CCOCC4)cc3)Nc3ccccc3)C=CC1O2` (centres unmarked) [Compound 676], for which the SUMO result at SUMO is “++”.
Take `COC(=O)C1=CC2(C(Cc3ccccc3)N(C)c3ccccc3)C=CC1O2` (centres unmarked) [Compound 284]: at SUMO, the SUMO result is recorded as “++”.
For `COC(=O)C1=C(C(=O)OC)C2(C(Cc3ccc(-c4cc[nH]n4)cc3)Nc3ccccc3)C=CC1O2` (centres unmarked) [Compound 698], the SUMO result at SUMO is on record as “+++”.
Turning to `COC(=O)C1=C(C(=O)OC)C2(C(Cc3ccc(Cl)nc3)Nc3ccccc3)C=CC1O2` (centres unmarked) [Compound 649], at SUMO, the SUMO result is given as “++”.
On to `COC(=O)C1=C(C(=O)OC)C2(C(Cc3ccccc3)Nc3ccccc3)C=CC1(c1ccccc1)O2` (centres unmarked) [Compound 696], for which the SUMO result at SUMO is “+”.
Consider `COC(=O)C1=C(C(=O)NCCN(C)C)C2C=CC1(C(Cc1ccccc1Cl)Nc1ccc(F)cc1)O2` (centres unmarked) [Compound 688], for which, on SUMO, the SUMO entry is “+++”.
With `COc1ccc(NC(=O)C2=C(C(=O)O)C3(C(Cc4ccccc4)Nc4ccccc4)C=CC2O3)cc1` (centres unmarked) [Compound 175], the SUMO entry on SUMO is listed as “+”.
For `COC(=O)C1=C(C(=O)OC)C2(C(Cc3ccccc3Cl)Nc3ccc(F)cc3)C=CC1O2` (centres unmarked) [Compound 673], the SUMO result at SUMO is recorded as “++”.
In the case of `COC(=O)C1=C(C(=O)OC)C2(C(Cc3ccc4ccccc4c3)Nc3ccccc3)C=CC1O2` (centres unmarked) [Compound 630], at SUMO, the SUMO result is recorded as “+++”.
For the molecule `COC(=O)C1=C(C(=O)Nc2ccc(OC)nc2)C2C=CC1(C(Cc1ccccc1)Nc1ccccc1)O2` (centres unmarked) [Compound 199], the SUMO result on SUMO is given as “++”.
On to `COC(=O)C1=C(C(=O)OC)C2(C(Cc3ccc(Cl)c(Cl)c3)Nc3ccccc3)C=CC1O2` (centres unmarked) [Compound 642], for which the SUMO entry at SUMO is on record as “+++”.
Still for that read-out and setting: next, `COC(=O)C1=C(C(=O)NCCN2CCOCC2)C2C=CC1(C(Cc1ccccc1)Nc1ccccc1)O2` (centres unmarked) [Compound 222]: “+++”.
As to `C=CC(C)(C)C(Nc1ccccc1)C12C=CC(O1)C(C(=O)OC)=C2C(=O)OC` (centres unmarked) [Compound 188], the SUMO result on SUMO was “++”.
On the same count and under the same terms, the value for `COC(=O)C1=C(C(=O)OC)C2(C(Cc3ccc(OCC(C)C)cc3)Nc3ccccc3)C=CC1O2` (centres unmarked) [Compound 651] was “++”; that for `COC(=O)C1=C(C(=O)OC)C2(C(Cc3ccc(Cl)cc3Cl)Nc3ccccc3)C=CC1O2` (centres unmarked) [Compound 641] was “+++”; that for `COC(=O)C1=C(C(=O)OC)C2(C(Cc3ccc(Br)cc3)Nc3ccccc3)C=CC1O2` (centres unmarked) [Compound 652] was “++”.
`COC(=O)C1=C(C(=O)OC)C2(C(Nc3ccccc3)c3ccc4ccccc4c3)C=CC1O2` (centres unmarked) [Compound 632]: the SUMO result at SUMO is recorded as “+++”.
